Consider two molecules from US12310970B2, “Compounds and methods for treating or preventing anterior segment ocular disorders and/or retinal degenerations” (YALE UNIVERSITY, priority 2018, dated 2025).

Structures are written as SMILES. In brackets after ≈: the same amount, converted by molar mass.

As usually defined, the solubility is how much of the substance goes into solution per volume. The low end stands for a poorly soluble substance, the high end for a readily soluble substance.

The conditions of data set [1]: in water; cited from earlier work.
Data set [2] can be described thus: Solubility / dissolution in aqueous media. It counts as physicochemical.
Description: 2.00 g HPBCD was dissolved in 4 mL deionized and filtered water by slow inversion/rotation. […] The volume was adjusted to 5.00 mL to provide 5.00 mL of a 40% clear solution by weight. To the 5.00 mL solution of 40% HPBCD was added 175 mg ciclopirox powder, and the vial was sealed and placed under slow rotary inversion to dissolve the solid. […] This 35 mg/mL solution was easily filtered through a 0.22 um syringe filter (MILLEX GV, PVDF membrane).
To the 5.00 mL solution of 40% HPBCD was added 175 mg (0.844 mmol, MW 207.3) ciclopirox powder and the vial sealed and placed under slow rotary inversion to dissolve the solid. […] This 35 mg/mL solution was easily filtered through a 0.22 um syringe filter (MILLEX GV, PVDF membrane).

Take `OC[C@H]1O[C@@H]2O[C@H]3[C@H](O)[C@@H](O)[C@@H](O[C@H]4[C@H](O)[C@@H](O)[C@@H](O[C@H]5[C@H](O)[C@@H](O)[C@@H](O[C@H]6[C@H](O)[C@@H](O)[C@@H](O[C@H]7[C@H](O)[C@@H](O)[C@@H](O[C@H]8[C@H](O)[C@@H](O)[C@@H](O[C@H]9[C@H](O)[C@@H](O)[C@@H](O[C@H]1[C@H](O)[C@H]2O)O[C@@H]9CO)O[C@@H]8CO)O[C@@H]7CO)O[C@@H]6CO)O[C@@H]5CO)O[C@@H]4CO)O[C@@H]3CO` [gamma cyclodextrin]: in data set [1], the solubility limit entry is recorded as “about 23.2 mg/mL”.
As to `Cc1cc(C2CCCCC2)n(O)c(=O)c1` [ciclopirox, 6-cyclohexyl-1-hydroxy-4-methyl-2(1H)-pyridone], the solubility in data set [2] (aqueous buffer, pH 7.4 phosphate buffer (no saline)) worked out at 1000 µg/mL (≈ 4.82 mM). This molecule also returned a concentration completely dissolved in data set [2] (in 40% HPBCD, after 1 hour mixing) of 35000 µg/mL.
